{"source": "patent US12656355B2", "about": "“Two phase indicator displacement assay” (The Florida State University Research Foundation, Inc., priority 2022, dated 2026)", "format_in_all_cases": "physicochemical", "key": {"[1]": {"experiment": "Surfactant mediated selective dye partitioning octanol/water in tubes (non-equilibrated)", "conditions": "mixture of red and blue dye in water, 4-48 hours", "procedure": "Herein, detecting selective partitioning into droplets in a microfluidic device was scaled up to millimeter volumes in tubes, as shown in FIGS. 15A-15B and FIGS. 16A-16B. The selective partitioning behavior of the two dyes between the octanol and water phases was studied in test tubes (FIGS. 15A-15B), and dye concentrations quantified optically. First, solutions of CTAB in octanol and both dyes in water were prepared separately. Then both the aqueous and organic solutions were combined into one tube. After some time, one or both dyes partitioned into the organic phase. […] Due to the larger scale of the experiment, it took between 4-48 hours to observe the selectivity, as compared to 1-10 minutes in the microfluidic setup. (Bell, 2020.) A question about the mechanism of this surfactant mediated molecular recognition was then whether one dye is thermodynamically favored to partition into the octanol in the presence of CTAB or whether it is kinetically driven. […]\n(§1) Erioglaucine disodium salt (Blue 1) was purchased from Sigma-Aldrich (St. Louis, MO, USA). […] The dye concentrations are chosen such that once this criterion is met, there will be enough dye left in the aqueous phase to be detected by a spectrophotometer so that the aqueous phase solution will have concentrations of 1700 uM, 850 uM, 425 uM, 213 uM, 106 uM for both red 40 dye and blue 1 dye."}, "[2]": {"experiment": "Equilibrium dye partitioning octanol/water with CTAB (tubes, absorbance of aqueous phase)", "conditions": "for stoichiometric ratio, CTAB molecules needed to extract each dye molecule: calculated from dye left in the water after extraction, where not all dye was extracted", "source_text": "To examine the dye partitioning at equilibrium, the two-phase system at various CTAB concentrations, samples were left on a shaker for one week followed by centrifugation and optical characterization of the aqueous phase by absorbance spectroscopy (FIGS. 16A-16B). Tubes containing only the red dye and only blue dye were included in the experiment as well as tubes with the dye mixture. […] CTAB has a net charge of +1 whereas both dye molecules have a net charge of −2. Thus, two positively charged CTAB can effectively balance the negative charge of the dye molecules resulting in a zero net charge for a complex of two CTAB and one dye molecule.\nIn order to further study the equilibrium state at high CTAB concentrations, the setup was used to allow for observation of the equilibrated state at high CTAB concentrations with excess dye in the water. Using the previously calculated dye ratios needed for maximum saturation in the organic phase, the dye concentrations were chosen so that it would be impossible for both red and blue dye to fully partition into the organic phase. Tubes with a range of concentration from 3.75 mM to 60 mM CTAB dissolved in octanol and deionized water with blue and red dye concentrations ranging from 106 μM to 1700 μM. By observing which dye is left in the aqueous phase after equilibrium is reached, it can be determined which dye is more thermodynamically favorable in the organic phase at equilibrium. If the mechanism for the blue dye selectivity at high CTAB concentrations is thermodynamic in nature and depends on the formation of micelles in the organic phase, then at high CTAB concentrations the dye remaining in the aqueous phase should be the red dye and at low CTAB concentrations, the dye remaining in the aqueous phase should be the blue dye. However, if the mechanism is kinetic and relies on the formation of an aggregation phase at the interface of the two phases, then at all concentrations of CTAB the dye remaining in the aqueous phase should be the blue dye. […] From this it was concluded that the red dye is thermodynamically favored to partition into the CTAB containing organic phase.\nas §1, with “USA). Allura red AC (Red 40) was obtained from TCI (Tokyo, Japan).” for “USA).”, “dye. […]” for “dye.”\nThe blue 1 dye and red 40 dye used wavelengths of 629 nm and 501 nm respectively for absorbance measurements. […]"}, "[3]": {"experiment": "Cross-polarized microscopy of CTAB containing octanol droplets exposed to aqueous dye", "conditions": "for anisotropic phase (birefringent ring) formation, single-dye system: 400 uM red dye only or 50 uM blue dye only, CTAB drops 7.5-60 mM, ring at 30 mM CTAB or higher; for birefringent phase formation under crossed polarizers: CTAB containing droplet arrays exposed to dye (FIGS. 6A-6B)", "procedure": "Also, it can be observed that there is formation of an anisotropic phase in the 30 mM CTAB drops in the red and blue dye and the red dye only systems before the red dye fully partitions into the organic phase of the drop around 5 minutes. After 5 minutes, as the red dye continues to partition into the organic phase, this anisotropic phase seems to disappear. This can be observed by observing the absence of the anisotropic phase at 10 minutes and all later times for the 30 mM CTAB drops in the red and blue dye and the red dye only systems. […] This pattern of anisotropic phase formation before the red dye partitions supports the kinetic barrier mechanism which depends on the formation of some anisotropic phase on the interface of the drops with high CTAB concentration that hinders the red dye from partitioning in and allows the blue dye to partition in at a faster rate resulting in the observed high CTAB concentration blue dye selectivity and the low CTAB concentration red dye selectivity in the Bell, 2020 study.\nErioglaucine disodium salt (Blue 1) was purchased from Sigma-Aldrich (St. Louis, MO, USA). Allura red AC (Red 40) was obtained from TCI (Tokyo, Japan). For the birefringent ring experiments shown in FIG. 3, 400 uM red 40 dye and 50 uM blue 1 dye were dissolved in D.I. water. For the equilibrium tube experiment, dye concentrations were chosen based on the assumption that one dye molecule can be sequestered for every two CTAB molecules. The dye concentrations are chosen such that once this criterion is met, there will be enough dye left in the aqueous phase to be detected by a spectrophotometer so that the aqueous phase solution will have concentrations of 1700 uM, 850 uM, 425 uM, 213 uM, 106 uM for both red 40 dye and blue 1 dye.\nThe different lipid solutions were microarrayed using 0.1-10 μL disposable sterile pipet tips (VWR) directly onto the substrate. Drops were 0.1 uL in volume and only had contact with the bottom glass slide. After tapping the microarray onto the substrate, 0.3 mm thick PDMS was used as a spacer between the substrate and the cover. The two spacers will be fixed 1.8 cm apart onto the substrate. The coverslip will be placed carefully onto two spacers. Microscope slides manufactured by Azer Scientific (Unifrost) will be used as substrates. Microscope cover glasses (25 mm Å˜25 mm) manufactured by VWR will be used as slipcovers. Approximately 130 μL of aqueous solution was added to the right side of the flow cell and moved quickly through the flow cell. Prior to experiments, test samples will be incubated in 1 mL of deionized water to test for stability.\nThe blue 1 dye and red 40 dye used wavelengths of 629 nm and 501 nm respectively for absorbance measurements. Microarray samples requiring 30 min or less were imaged with a digital microscope (Dino-Lite Pro2 AD-413T or Dino-Lite Edge AM4115ZT) at 100 Å˜ magnification. For imaging lipid microarrays, a portable backlight stage (Dino-Lite MSBL-ZW1R) was used as a white light source and positioned under the bottom of the slide to illuminate the sample."}, "[4]": {"experiment": "Partitioning indicator displacement assay (PIDA), CTAB/octanol drops with blue 1 dye indicator", "source_text": "The organic drops with fully dissolved indicator were exposed to an aqueous phase containing the target analyte. Over time the target analyte displaced the indicator and partitioned into the organic phase. In this experiment, the sensor had various concentrations of CTAB dissolved into the organic phase and used the maximum saturation ratio of blue dye to CTAB (Mechanism paper) to saturate each organic phase solution with the indicator, blue FCF dye. The displacement of blue dye from the organic phase was measured by monitoring optical transmittance using a color camera.\nFive concentrations (60 mM, 30 mM, 15 mM, 7.5 mM, and 3.75 mM) of CTAB in octanol were placed in a tube along with 50 μM of blue dye dissolved in D.I. water, set on a shaker and allowed to equilibrate. An array was made with a sample of each concentration with the blue dye; with 11 drops (replicates) of each concentration and viewed using a DinoLite microscope. Four-hundred μM of aqueous red dye was flowed into the array and a picture was taken before addition of red dye and then every 5 seconds over a 15 minute period. […] Images were analyzed in imageJ, using […] within each replicate and 25 points for background analysis. The replicates were then separated by channel as gray values of the micrographs, and data normalized into absorbance values by subtracting the original dye free data from each replicate. The replicates were averaged per concentration and the data was transferred into percent transmittance using the formula […].\nThe organic solute cetyltrimethylammonium bromide (CTAB) was purchased from Sigma-Aldrich (St. Louis, USA). Erioglaucine disodium salt (Blue 1) was purchased from Sigma-Aldrich (St. Louis, MO, USA). 10 mL of 6 mM, 3 mM, 1.5 mM, 0.75 mM, and 0.375 mM blue 1 dye dissolved in deionized water and added to separate tubes containing 2 mL of different concentrations of CTAB in octanol (60 mM, 30 mM, 15 mM, 7.5 mM, and 3.75 mM), set on a shaker and allowed to equilibrate. After equilibrating for one week, the organic layer of each CTAB concentration containing the blue 1 dye was used to make the microarray.\n50 nL octanol drops containing CTAB and blue 1 dye were placed onto microscope slides manufactured by Azer Scientific (Unifrost) using 0.1-10 μL disposable sterile pipet tips (VWR). A barrier of 0.3 mm PDMS was used as a spacer between the slide and cover slip (25 mm×25 mm) manufactured by VWR. Approximately 135 μL of analyte solution was added to the flow cell and moved quickly through the flow cell.\nSamples were imaged with a digital microscope (Dino-Lite Pro2 AD-413T or Dino-Lite Edge AM4115ZT) at 100 Å˜ magnification. For imaging PIDA assays, a portable backlight stage (Dino-Lite MSBL-ZW1R) was used as a white light source and positioned under the bottom of the slide to illuminate the sample. Images for measurement of the transmittance were captured in brightfield mode. The time dependent partitioning was recorded at one frame per 20 second intervals.\nImages were analyzed in imageJ, using 10 points within each replicate and 25 points for background analysis. The replicates were then separated into different RGB channels as gray values of the micrographs. The data was then normalized into transmittance values by subtracting the original dye free data from each replicate. The data was then converted into absorbance using the formula […]. Using the absorbance data, and the measured initial blue dye concentrations, the data was converted to blue dye concentration and then the replicates were averaged per concentration and the standard deviation was calculated. Graphs showing the separate channels of the micrographs, with the red color (b) or blue color (e) that was viewable with the DinoLite, and how they differed with concentration (B and E). The graphs are made from each of the 5 concentrations with their associated normalized absorbance values. […]"}, "[5]": {"conditions": "3.75 mM CTAB drops, blue 1 dye indicator, red 40 dye analyte, from TRF fitting"}}}
{"smiles": "COc1cc(S(=O)(=O)[O-])c(C)cc1N=Nc1c(O)ccc2cc(S(=O)(=O)[O-])ccc12.[Na+].[Na+]", "note": "[red dye, Allura red AC]", "values": [{"measurement": "selective partitioning into the octanol phase", "setting": "[1]; CTAB 0.5 mM and 1 mM in octanol", "value": "selectively partitioned into the octanol phase"}, {"measurement": "partitioning at equilibrium with excess dye in the water", "setting": "[2]; 3.75 mM to 60 mM CTAB in octanol, blue and red dye 106 μM to 1700 μM, all concentrations tested", "value": "preferentially partition into the organic phase"}, {"measurement": "stoichiometric ratio, CTAB molecules needed to extract each dye molecule", "setting": "[2]", "value": "approximately 2"}, {"measurement": "partitioning at equilibrium", "setting": "[2]; low CTAB concentration (<15 mM), shaker one week", "value": "partitioned into the octanol phase"}, {"measurement": "anisotropic phase (birefringent ring) formation, single-dye system", "setting": "[3]", "value": "formation of an anisotropic structure"}, {"measurement": "anisotropic phase (birefringent ring) formation, single-dye system", "setting": "[3]; listed as Allura Red Dye", "value": "causes a ring"}, {"measurement": "birefringent phase formation under crossed polarizers", "setting": "[3]", "value": "birefringent phase forming"}]}
{"smiles": "O=S(=O)([O-])c1ccc(N=Nc2c(O)ccc3cc(S(=O)(=O)[O-])ccc23)cc1.[Na+].[Na+]", "note": "[Sunset Yellow FCF]", "values": [{"measurement": "birefringent phase formation under crossed polarizers", "setting": "[3]", "value": "not"}]}
{"smiles": "[Cl-].[Na+]", "note": "[sodium chloride]", "values": [{"measurement": "blue dye indicator displaced", "setting": "[4]; 50 mM analyte, after 10 minutes, 7.5 mM CTAB containing octanol drops (FIG. 7B)", "value": "~48.3", "unit": "%"}]}
{"smiles": "CCN(Cc1cccc(S(=O)(=O)[O-])c1)c1ccc(C(=C2C=CC(=[N+](CC)Cc3cccc(S(=O)(=O)[O-])c3)C=C2)c2ccccc2S(=O)(=O)[O-])cc1.[Na+].[Na+]", "note": "[blue dye, Erioglaucine disodium salt]", "values": [{"measurement": "selective partitioning into the octanol phase", "setting": "[1]; high CTAB concentrations (30 mM and 60 mM) in octanol", "value": "selectively partitioned into the octanol phase"}, {"measurement": "stoichiometric ratio, CTAB molecules needed to extract each dye molecule", "setting": "[2]", "value": "approximately 2"}, {"measurement": "anisotropic phase (birefringent ring) formation, single-dye system", "setting": "[3]; disodium salt", "value": "no anisotropic phase formation"}, {"measurement": "anisotropic phase (birefringent ring) formation, single-dye system", "setting": "[3]; listed as Blue Dye, disodium salt", "value": "doesn't cause a ring"}]}
{"smiles": "CCCCCCCCCCCCCCCC[N+](C)(C)C.[Br-]", "note": "[CTAB, cetyltrimethylammonium bromide]", "values": [{"measurement": "delay in onset time of displacement", "setting": "[4]; [5]", "value": "no delay in onset time"}, {"measurement": "rate of displacement (decay constant)", "setting": "[4]; [5]", "value": 0.48, "unit": "s⁻¹"}, {"measurement": "rate of displacement (decay constant)", "setting": "[4]; 7.5 mM CTAB drops, blue 1 dye indicator, red 40 dye analyte, from TRF fitting", "value": 0.42, "unit": "s⁻¹"}, {"measurement": "delayed onset time of displacement", "setting": "[4]; 30 mM CTAB drops, blue 1 dye indicator, red 40 dye analyte, from TRF fitting", "value": 7.76, "unit": "min"}, {"measurement": "displacement rate", "setting": "[4]; 30 mM CTAB, blue 1 dye indicator, red 40 dye analyte, from TRF fitting", "value": 0.07, "unit": "s⁻¹"}]}
